# Read-outs that look alike come from different tables or passages of the source.
# Target: T1, mouse TMEM16A mutant N546A (Mus musculus, UniProt Q8BHY3, N546A)
# T1 construct: expressed in transfected cells; host or cells: HEK293T
# T1 sequence (Q8BHY3 1-960 N546A): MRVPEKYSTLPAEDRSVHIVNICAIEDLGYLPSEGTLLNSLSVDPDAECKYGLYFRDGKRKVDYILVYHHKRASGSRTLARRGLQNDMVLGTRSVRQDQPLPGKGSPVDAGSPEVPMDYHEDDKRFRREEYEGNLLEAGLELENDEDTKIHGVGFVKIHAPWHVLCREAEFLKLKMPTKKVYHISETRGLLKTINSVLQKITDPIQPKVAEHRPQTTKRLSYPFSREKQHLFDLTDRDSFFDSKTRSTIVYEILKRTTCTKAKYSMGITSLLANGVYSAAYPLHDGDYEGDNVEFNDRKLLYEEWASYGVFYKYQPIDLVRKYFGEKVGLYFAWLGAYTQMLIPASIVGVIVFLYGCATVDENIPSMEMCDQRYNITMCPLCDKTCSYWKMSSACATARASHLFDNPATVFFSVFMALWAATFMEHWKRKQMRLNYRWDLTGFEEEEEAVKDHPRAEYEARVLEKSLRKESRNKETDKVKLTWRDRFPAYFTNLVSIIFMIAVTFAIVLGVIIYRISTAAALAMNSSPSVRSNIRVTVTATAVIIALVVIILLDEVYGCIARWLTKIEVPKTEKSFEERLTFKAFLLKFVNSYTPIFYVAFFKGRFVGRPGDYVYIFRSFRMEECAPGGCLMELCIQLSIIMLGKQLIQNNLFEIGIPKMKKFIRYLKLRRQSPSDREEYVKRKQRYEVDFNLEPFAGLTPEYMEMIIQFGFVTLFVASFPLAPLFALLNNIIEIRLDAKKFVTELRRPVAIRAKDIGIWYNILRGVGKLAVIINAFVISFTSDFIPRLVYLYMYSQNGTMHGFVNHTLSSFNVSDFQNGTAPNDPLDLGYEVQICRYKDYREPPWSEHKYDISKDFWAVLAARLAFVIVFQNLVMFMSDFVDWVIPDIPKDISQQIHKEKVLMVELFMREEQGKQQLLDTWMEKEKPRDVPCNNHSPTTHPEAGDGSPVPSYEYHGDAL
# Assay: Inside-out patch recording of 1PBC block, mutant N546A
# Assay type: cell-based
# Conditions: for remaining activity at 1 µM: 1PBC 1; for remaining activity at 1 µM / remaining activity at 3 µM / remaining activity at 10 µM: read-out: fraction of unblocked current; for remaining activity at 3 µM: 1PBC 3; for remaining activity at 10 µM: 1PBC 10
# Description: HEK293T cells (ATCC CRL-1573) were maintained in Dulbecco’s modified Eagle’s medium (DMEM; Sigma-Aldrich) supplemented with 10 U ml^−1 penicillin, 0.1 mg ml^−1 streptomycin (Sigma-Aldrich), 2 mM L-glutamine (Sigma-Aldrich), and 10% FBS (Sigma-Aldrich) in a humidified atmosphere containing 5% CO2 at 37 °C. HEK293S GnTI^− cells (ATCC CRL-3022) were maintained in HyClone HyCell TransFx-H medium (GE Healthcare) supplemented with 10 U ml^−1 penicillin, 0.1 mg ml^−1 streptomycin, 4 mM L-glutamine, 0.15% poloxamer 188 (Sigma-Aldrich), and 1% FBS in an atmosphere containing 5% CO2 at 185 rpm at 37 °C. The ac splice variant of mouse TMEM16A (UniProt ID: Q8BHY3), mouse TMEM16B (UniProt ID: Q8CFW1), or mouse TMEM16F (UniProt ID: Q6P9J9) bearing a 3C cleavage site, a Venus YFP, a Myc tag, and a Streptavidin-binding peptide (SBP) downstream of the open reading frame in a modified pcDNA3.1 vector (Invitrogen) were used as described previously[21],[31]. Mutations were introduced using a modified QuikChange method[58] and were verified by sequencing.
# HEK293T cells were transfected with 3–4 μg DNA per 6 cm Petri dish using the calcium phosphate co-precipitation method and were used within 24–96 h after transfection. Recordings were performed on inside-out patches excised from HEK293T cells expressing the construct of interest. Patch pipettes were pulled from borosilicate glass capillaries (O.D. 1.5 mm, I.D. 0.86 mm, Sutter Instrument) and were fire-polished with a microforge (Narishige) before use. Pipette resistance was typically 3–8 MΩ when filled with the recording solutions detailed below. Seal resistance was typically 4 GΩ or higher. Voltage-clamp recordings were made using Axopatch 200B, Digidata 1550, and Clampex 10.7 (Molecular Devices). Analog signals were filtered with the in-built 4-pole Bessel filter at 10 kHz and were digitized at 20 kHz. Solution exchange was achieved using a gravity-fed system through a theta glass pipette mounted on an ultra-fast piezo-driven stepper (Siskiyou). […] All recordings were performed at 20 °C.
# A symmetrical ionic condition was used throughout. Stock solution with Ca^2+-EGTA contained 150 mM NaCl, 5.99 mM Ca(OH)2, 5 mM EGTA, and 10 mM HEPES at pH 7.40. Stock solution with EGTA contained 150 mM NaCl, 5 mM EGTA, and 10 mM HEPES at pH 7.40. Free Ca^2+ concentrations were adjusted by mixing the stock solutions at the required ratios calculated using the WEBMAXC program (http://web.stanford.edu/~cpatton/webmaxcS.htm). Patch pipettes were filled with the stock solution with Ca^2+-EGTA, which has a free Ca^2+ concentration of 1 mM. 1PBC (ChemBridge) stock was reconstituted in anhydrous DMSO (Sigma-Aldrich) at 100 mM and stored at −20 °C. Working solutions with 1PBC were prepared by serial dilution. Unless otherwise stated, experiments were performed at a saturating Ca^2+ concentration as shown in Supplementary Table 1 and the primary data were corrected for current rundown as described previously[21],[25].
# Concentration-response relations, obtained from the ratio of the I-V plots before and after the application of the blocker, were fitted to the Hill equation,1 I/Imax=1/1+IC50/[blocker]^h where I/Imax is the normalized current responses, IC50 defines the concentration at which inhibition is at its half-maximum, and h is the Hill coefficient.
compound,measurement,setting,value
N#Cc1c(C(F)(F)F)cc(O)n2c1nc1ccccc12 [1PBC],IC50,"0 mV, 2 µM Ca2+",594 nM
same,remaining activity at 1 µM,0 mV,35.3%
same,remaining activity at 1 µM,20 mV,28.4%
same,remaining activity at 1 µM,40 mV,22%
same,remaining activity at 1 µM,60 mV,19.8%
same,remaining activity at 1 µM,80 mV,18.3%
same,remaining activity at 1 µM,100 mV,19.3%
same,remaining activity at 1 µM,120 mV,20.4%
same,remaining activity at 1 µM,140 mV,24.4%
same,remaining activity at 1 µM,-20 mV,42.1%
same,remaining activity at 1 µM,-40 mV,47.5%
same,remaining activity at 1 µM,-60 mV,55.1%
same,remaining activity at 1 µM,-80 mV,60.7%
same,remaining activity at 1 µM,-100 mV,65.9%
same,remaining activity at 1 µM,-120 mV,69.4%
same,remaining activity at 1 µM,-140 mV,71.9%
same,remaining activity at 3 µM,0 mV,16.8%
same,remaining activity at 3 µM,20 mV,12.7%
same,remaining activity at 3 µM,40 mV,11%
same,remaining activity at 3 µM,60 mV,8.55%
same,remaining activity at 3 µM,80 mV,9.38%
same,remaining activity at 3 µM,100 mV,9.83%
same,remaining activity at 3 µM,120 mV,10.5%
same,remaining activity at 3 µM,140 mV,17.6%
same,remaining activity at 3 µM,-20 mV,20.8%
same,remaining activity at 3 µM,-40 mV,25.6%
same,remaining activity at 3 µM,-60 mV,31.9%
same,remaining activity at 3 µM,-80 mV,36.9%
same,remaining activity at 3 µM,-100 mV,42.7%
same,remaining activity at 3 µM,-120 mV,48.5%
same,remaining activity at 3 µM,-140 mV,51.2%
same,remaining activity at 10 µM,0 mV,5.97%
same,remaining activity at 10 µM,20 mV,5.12%
same,remaining activity at 10 µM,40 mV,3.23%
same,remaining activity at 10 µM,60 mV,3.5%
same,remaining activity at 10 µM,80 mV,3.36%
same,remaining activity at 10 µM,100 mV,5.03%
same,remaining activity at 10 µM,120 mV,4.78%
same,remaining activity at 10 µM,140 mV,10.2%
same,remaining activity at 10 µM,-20 mV,6.81%
same,remaining activity at 10 µM,-40 mV,10.2%
same,remaining activity at 10 µM,-60 mV,13.2%
same,remaining activity at 10 µM,-80 mV,16.4%
same,remaining activity at 10 µM,-100 mV,19.7%
same,remaining activity at 10 µM,-120 mV,24.7%
same,remaining activity at 10 µM,-140 mV,27.4%
same,IC50,"20 mV, 2 µM Ca2+",431 nM
same,IC50,"40 mV, 2 µM Ca2+",326 nM
same,IC50,"60 mV, 2 µM Ca2+",269 nM
same,log-fold IC50 (change of mutant vs WT),80 mV,-0.9263
same,IC50,"80 mV, 2 µM Ca2+",239 nM
same,IC50,"100 mV, 2 µM Ca2+",233 nM
same,IC50,"120 mV, 2 µM Ca2+",238 nM
same,IC50,"140 mV, 2 µM Ca2+",315 nM
same,IC50,"-20 mV, 2 µM Ca2+",805 nM
same,IC50,"-40 mV, 2 µM Ca2+",1020 nM
same,IC50,"-60 mV, 2 µM Ca2+",1360 nM
same,IC50,"-80 mV, 2 µM Ca2+",1720 nM
same,IC50,"-100 mV, 2 µM Ca2+",2170 nM
same,IC50,"-120 mV, 2 µM Ca2+",2750 nM
same,IC50,"-140 mV, 2 µM Ca2+",3100 nM
same,IC50,"N546A, V 0 mV",594 nM
same,IC50,"N546A, V 20 mV",431 nM
same,IC50,"N546A, V 40 mV",326 nM
same,IC50,"N546A, V 60 mV",269 nM
same,IC50,"N546A, V 80 mV",239 nM
same,IC50,"N546A, V 100 mV",233 nM
same,IC50,"N546A, V 120 mV",238 nM
same,IC50,"N546A, V 140 mV",315 nM
same,IC50,"N546A, V -20 mV",805 nM
same,IC50,"N546A, V -40 mV",1020 nM
same,IC50,"N546A, V -60 mV",1360 nM
same,IC50,"N546A, V -80 mV",1720 nM
same,IC50,"N546A, V -100 mV",2170 nM
same,IC50,"N546A, V -120 mV",2750 nM
same,IC50,"N546A, V -140 mV",3100 nM
